Test results as given in patent US7420069B2, “Crystalline composition containing escitalopram” (H. Lundbeck A/S, priority 2001, dated 2008).
Structures can show the parent of a compound that is named as a salt.

Assay: Particle size distribution by laser diffraction (Sympatec Helos)
Type: physicochemical
Conditions: for particle size: product of the prior process (background statement), method not stated at that place
From the text: As used herein, “particle size distribution” means the cumulative volume size distribution of equivalent spherical diameters as determined by laser diffraction at 1 bar dispersive pressure in a Sympatec Helos equipment. “Median particle size”, correspondingly, means the median of said particle size distribution.
A wet filter cake obtained by precipitation of crude escitalopram oxalate by mixing of ethanolic solutions of escitalopram and oxalic acid, respectively, and containing approximately 35 kg escitalopram oxalate was suspended in 322 L ethanol. The material was dissolved by heating to reflux, and 150 L ethanol was removed by distillation. Cooling was applied, and the mixture was cooled from reflux to 15° C. with a cooling rate between 0.2 and 0.5° C./min in the temperature interval 80 to 40° C. During cooling, the mixture was seeded with escitalopram oxalate at 75, 65 and 60° C. (10 g each time). The crystallization mixture was kept at 15° C. for 10 hours before the crystalline escitalopram oxalate was isolated. Purified escitalopram oxalate (27.7 kg, […]) was obtained by filtration of the crystallization mixture, washing with ethanol and drying of the filter cake.

Row | Structure (SMILES) | particle size | Particle size distribution, 10% quantile (Quantile 10%, cumulative volume size distribution, Sympatec Helos, 1 bar dispersive pressure) | Particle size distribution, 50% quantile (median particle size) (Quantile 50%, cumulative volume size distribution, Sympatec Helos, 1 bar dispersive pressure) | Particle size distribution, 90% quantile (Quantile 90%, cumulative volume size distribution, Sympatec Helos, 1 bar dispersive pressure)
1 | CN(C)CCCC1(c2ccc(F)cc2)OCc2cc(C#N)ccc21 (centres unmarked) [citalopram hydrobromide, reference compound] | 2-20 μm |  |  | 
2 | CN(C)CCC[C@@]1(c2ccc(F)cc2)OCc2cc(C#N)ccc21.O=C(O)C(=O)O [Example 1, (S)-1-[3-(dimethylamino)propyl]-1-(4-fluorophenyl)-1,3-dihydro-5-isobenzofurancarbonitrile oxalate] |  | 13 μm | 163 μm | 455 μm
3 | CN(C)CCC[C@@]1(c2ccc(F)cc2)OCc2cc(C#N)ccc21.O=C(O)C(=O)O [escitalopram oxalate, (S)-1-[3-(dimethylamino)propyl]-1-(4-fluorophenyl)-1,3-dihydro-5-isobenzofurancarbonitrile oxalate, reference compound] | 2-20 μm |  |  | 
